Experimental data as given in patent US11008340B2, “Modulators of ROR-gamma” (Vitae Pharmaceuticals, LLC, priority 2015, dated 2021).
pKi: −log10 of the molar value. Where two headings read alike, the source gives them in different places.

Molecular target: T1, recombinant RORγ Ligand Binding Domain (LBD) protein (Homo sapiens, UniProt P51449)
T1 construct: 6×His; GST
T1 sequence (P51449 269-508 limits assumed): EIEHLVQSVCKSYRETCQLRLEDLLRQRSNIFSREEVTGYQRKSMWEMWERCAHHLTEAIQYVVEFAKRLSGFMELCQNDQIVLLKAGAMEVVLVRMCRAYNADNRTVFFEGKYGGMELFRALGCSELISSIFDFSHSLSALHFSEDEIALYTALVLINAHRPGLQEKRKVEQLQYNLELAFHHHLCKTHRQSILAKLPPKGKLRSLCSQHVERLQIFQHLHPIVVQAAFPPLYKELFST
Assay: Radio-Ligand RORγ Binding Assay (Assay 1)
Conditions: read-out: Avg ROR Bind Ki
Method: Radio-Ligand RORγ Binding Assay (Assay 1)
Compounds described herein were tested for ability to bind to RORγ in a cell-free competition assay with commercially available radio-ligand (RL), 25-hydroxy [26,27-^3H]-cholesterol (PerkinElmer, Cat. #NET674250UC), for a ligand binding site on a recombinant RORγ Ligand Binding Domain (LBD) protein expressed as a 6×His-Glutathione-S-Transferase (GST) fusion. The assay was performed in 96-well SPA plates (PerkinElmer, Cat. #1450-401) in 50 mM HEPES buffer, pH 7.4, containing 150 mM NaCl, 5 mM MgCl2, 10% (v/v) glycerol, 2 mM CHAPS, 0.5 mM 3-octylglucopyranoside and 5 mM DTT. Tested compounds were dissolved in DMSO, and semi-log (3.162×) serial dilutions of the compounds were prepared in the same solvent. Two μL of the DMSO solutions were mixed with 28 μL of 8.6 nM 25-hydroxy [26,27-^3H]-cholesterol and 50 μL of 24 nM RORγ LBD. The plate was shaken at 700 rpm for 20 min and incubated for 10 min at rt, after which 40 μL of poly-Lys YSi SPA beads (PerkinElmer, Cat. #RPNQ0010) were added to achieve 50 μg of the beads per well. The plate was incubated on an orbital shaker for 20 min and then for 10 min without agitation at rt. SPA signal for tritium beta radiation was registered on PerkinElmer Microbeta plate reader. […] The percent inhibition vs. concentration data were fit into a four-parameter model, and IC50 values were calculated from the fit as the concentrations corresponding to the inflection points on the dose-response curves. Inhibitory constants (Ki) were calculated using the following equation, where [RL] is the concentration in the assay and KD is a dissociation constant of 25-hydroxy [26,27-^3H]-cholesterol: […]

[1] = radio-ligand competition, 25-hydroxy [26,27-3H]-cholesterol, RORγ LBD
[2] = radio-ligand competition, RORγ LBD, head without unit (Tables 15, 17)
[3] = competition with 25-hydroxy [26,27-3H]-cholesterol, SPA, class symbols

pKi [1] | Structure (SMILES) | also measured
6.00 to 7.00 | CC[C@H]1CN(c2ncc(-c3cccc(OC)n3)cn2)Cc2cc(C(=O)NCc3ccc(S(=O)(=O)CC)cc3)ccc21 (single isomer, unassigned) [Hy7-20.2] | –
6.00 to 7.00 | CCS(=O)(=O)c1ccc(CNC(=O)c2ccc3c(c2)CCN(Cc2ncc(Br)cn2)[C@@H]3C(C)C)cc1 (single isomer, unassigned) [Hy2A-26.2] | –
< 6.00 | CCS(=O)(=O)c1ccc(CNC(=O)c2ccc3c(c2)CCN(Cc2ncc(C)cn2)[C@@H]3C(C)C)cc1 (single isomer, unassigned) [Hy2A-12.2] | –
– | CCS(=O)(=O)c1ccc(CNC(=O)c2cnc3c(c2)CCN(c2ncc(C(F)(F)F)cn2)[C@@H]3C(C)C)cc1 (single isomer, unassigned) [Hy2B-3.2] | pKi [2]: 6.00 to 7.00
6.00 to 7.00 | CCS(=O)(=O)c1ccc(CNC(=O)c2ccc3c(OCc4ccc(C(F)(F)F)cc4)cc(C)nc3c2)cc1 [Hy1B-1, N-(4-(ethylsulfonyl)benzyl)-2-methyl-4-((4-(trifluoromethyl)benzyl)oxy)quinoline-7-carboxamide] | –
6.00 to 7.00 | CCS(=O)(=O)c1ccc(CNC(=O)c2cnc3c(C4CC4)n(C[C@H]4CC[C@H](C(F)(F)F)CC4)nc3c2)nc1 [Hy3B-3, 3-cyclopropyl-N-((5-(ethylsulfonyl)pyridin-2-yl)methyl)-2-(((1r,4r)-4-(trifluoromethyl)cyclohexyl)methyl)-2H-pyrazolo[4,3-b]pyridine-6-carboxamide] | –
< 6.00 | CCS(=O)(=O)c1ccc(CNC(=O)c2ccc3c(c2)CN(c2ncc(N4CCOCC4)cn2)C[C@@H]3C(C)C)cc1 (single isomer, unassigned) [Hy7-19.2] | –
6.00 to 7.00 | CCS(=O)(=O)c1ccc(CNC(=O)c2ccc3c(OC[C@H]4CC[C@H](C(F)(F)F)CC4)cc(C)nc3c2)cc1 [Hy1B-2, N-(4-(ethylsulfonyl)benzyl)-2-methyl-4-(((1r,4r)-4-(trifluoromethyl)cyclohexyl)methoxy)quinoline-7-carboxamide] | –
6.00 to 7.00 | CCS(=O)(=O)c1ccc([C@H](CO)NC(=O)c2cn(C)c3c(OC[C@H]4CC[C@H](C(F)(F)F)CC4)nccc23)cc1 [Hy5-5, N-((R)-1-(4-(ethylsulfonyl)phenyl)-2-hydroxyethyl)-1-methyl-7-(((1r,4R)-4-(trifluoromethyl)cyclohexyl)methoxy)-1H-pyrrolo[2,3-c]pyridine-3-carboxamide] | –
> 7.00 | CCS(=O)(=O)c1ccc([C@H](CO)NC(=O)c2cnc3c(C4CC4)n(C[C@H]4CC[C@H](C(F)(F)F)CC4)nc3c2)nc1 [Hy3B-4, 3-cyclopropyl-N-((R)-1-(5-(ethylsulfonyl)pyridin-2-yl)-2-hydroxyethyl)-2-(((1r,4R)-4-(trifluoromethyl)cyclohexyl)methyl)-2H-pyrazolo[4,3-b]pyridine-6-carboxamide] | –
– | CCS(=O)(=O)c1ccc(CNC(=O)c2cnc3c(c2)CCN(C[C@H]2CC[C@H](C(F)(F)F)CC2)[C@@H]3C(C)C)nc1 (single isomer, unassigned) [Hy2B-10.2] | pKi [2]: 6.00 to 7.00
< 6.00 | CCS(=O)(=O)c1ccc(CNC(=O)c2ccc3c(c2)CN(c2ncc(-c4ccn(C)c(=O)c4)cn2)C[C@@H]3C(C)C)cc1 (single isomer, unassigned) [Hy7-25.2] | –
6.00 to 7.00 | CCS(=O)(=O)c1ccc(CNC(=O)c2ccc3c(c2)CCN(c2ncc(C#N)cn2)[C@H]3C(C)C)cc1 (single isomer, unassigned) [Hy2A-1.2] | –
< 6.00 | CCS(=O)(=O)c1ccc(CNC(=O)c2ccc3c(c2)CN(c2ncc(-c4ccc(=O)n(C)c4)cn2)C[C@@H]3C(C)C)cc1 (single isomer, unassigned) [Hy7-24.2] | –
– | CCS(=O)(=O)c1ccc(CNC(=O)c2cnc3c(c2)CCN(c2ncc(C#N)cn2)[C@H]3C(C)C)cc1 (single isomer, unassigned) [Hy2B-1.1] | pKi [2]: < 6.00
< 6.00 | CC1c2ccc(C(=O)NCc3ccc(S(C)(=O)=O)cc3)cc2CCN1Cc1ccc(F)cc1 (racemic) [Hy2A-6, 2-(4-fluorobenzyl)-1-methyl-N-(4-(methylsulfonyl)benzyl)-1,2,3,4-tetrahydroisoquinoline-6-carboxamide] | –
6.00 to 7.00 | CCS(=O)(=O)c1ccc(CNC(=O)c2ccc3c(c2)CCN(c2ncc(C#N)cn2)[C@@H]3C(C)C)cc1 (single isomer, unassigned) [Hy2A-1.1] | –
< 6.00 | CCS(=O)(=O)c1ccc(CNC(=O)c2ccc3c(c2)CN(c2ncc(-c4ccc(=O)[nH]c4)cn2)C[C@@H]3C(C)C)cc1 (single isomer, unassigned) [Hy7-21.2] | –

pKi [1] | Structure (SMILES) | also measured
> 7.00 | CCS(=O)(=O)c1ccc(CNC(=O)c2ccc3c(c2)CCN(Cc2ccc(C#N)cc2)[C@@H]3C(C)C)cc1 (single isomer, unassigned) [Hy2A-15.2] | –
– | CCS(=O)(=O)c1ccc(CNC(=O)c2ccc3c(OC[C@H]4CC[C@H](C(F)(F)F)CC4)ncnc3c2)cc1 [Hy1C-2, N-(4-(ethylsulfonyl)benzyl)-4-(((1r,4r)-4-(trifluoromethyl)cyclohexyl)methoxy)quinazoline-7-carboxamide] | pKi [3]: 6.00 to 7.00
6.00 to 7.00 | CCOC(=O)c1cnc(N2Cc3cc(C(=O)NCc4ccc(S(=O)(=O)CC)cc4)ccc3[C@@H](C(C)C)C2)nc1 (single isomer, unassigned) [Hy7-16.2] | –
6.00 to 7.00 | CCOC(=O)c1cnc(N2CCc3cc(C(=O)NCc4ccc(S(=O)(=O)CC)cc4)ccc3[C@@H]2C(C)C)nc1 (single isomer, unassigned) [Hy2A-4.1] | –
6.00 to 7.00 | CCOC(=O)c1cnc(N2CCc3cc(C(=O)NCc4ccc(S(=O)(=O)CC)cc4)ccc3[C@H]2C(C)C)nc1C(F)(F)F (single isomer, unassigned) [Hy2A-5.2] | –
– | CCS(=O)(=O)c1ccc(CNC(=O)c2cnc3c(c2)CCN(C[C@H]2CC[C@H](C(F)(F)F)CC2)[C@@H]3C(C)C)cc1 (single isomer, unassigned) [Hy2B-9.2] | pKi [2]: 6.00 to 7.00
> 7.00 | CCC1CN(C2CCC(C(F)(F)F)CC2)Cc2cc(C(=O)NC(CO)c3ccc(S(=O)(=O)CC)cc3)ccc21 (single isomer, unassigned) [Hy7-35.3] | –
– | CCS(=O)(=O)c1ccc(CNC(=O)c2cnc3c(c2)CCN(c2ncc(C#N)cn2)[C@@H]3C(C)C)cc1 (single isomer, unassigned) [Hy2B-1.2] | pKi [2]: < 6.00
6.00 to 7.00 | CCC1CN(C2CCC(C(F)(F)F)CC2)Cc2cc(C(=O)NC(CO)c3ccc(S(=O)(=O)CC)cc3)ccc21 (single isomer, unassigned) [Hy7-35.4] | –
6.00 to 7.00 | CC[C@H]1CN(C2CCC(F)(F)CC2)Cc2cc(C(=O)N[C@@H](CO)c3ccc(S(=O)(=O)CC)cc3)ccc21 (single isomer, unassigned) [Hy7-32.2] | –
6.00 to 7.00 | CCOC(=O)c1cnc(N2CCc3cc(C(=O)NCc4ccc(S(=O)(=O)CC)cc4)ccc3[C@H]2C(C)C)nc1 (single isomer, unassigned) [Hy2A-4.2] | –
– | CCS(=O)(=O)c1ccc(CNC(=O)c2cnc3c(c2)CCN(Cc2ccc(Cl)cc2)C3C(C)C)cc1 (single isomer, unassigned) [Hy2B-8.2] | pKi [2]: 6.00 to 7.00
– | CCS(=O)(=O)c1ccc([C@H](CO)NC(=O)c2ccc3c(OC[C@H]4CC[C@H](C(F)(F)F)CC4)ncnc3c2)cc1 [Hy1C-1, N-((R)-1-(4-(ethylsulfonyl)phenyl)-2-hydroxyethyl)-4-(((1r,4R)-4-(trifluoromethyl)cyclohexyl)methoxy)quinazoline-7-carboxamide] | pKi [3]: 6.00 to 7.00
6.00 to 7.00 | CCS(=O)(=O)c1ccc(CNC(=O)c2c[nH]c3c(OC[C@H]4CC[C@H](C(F)(F)F)CC4)nccc23)cc1 [Hy5-2, N-(4-(ethylsulfonyl)benzyl)-7-(((1r,4r)-4-(trifluoromethyl)cyclohexyl)methoxy)-1H-pyrrolo[2,3-c]pyridine-3-carboxamide] | –
6.00 to 7.00 | CCS(=O)(=O)c1ccc(CNC(=O)c2ccc3c(c2)CCN(Cc2ccc(F)cc2)C3C)cc1 (racemic) [Hy2A-8, N-(4-(ethylsulfonyl)benzyl)-2-(4-fluorobenzyl)-1-methyl-1,2,3,4-tetrahydroisoquinoline-6-carboxamide] | –
– | CCOC(=O)c1cnc(N2CCc3cc(C(=O)NCc4ccc(S(=O)(=O)CC)cc4)cnc3[C@@H]2C(C)C)nc1 (single isomer, unassigned) [Hy2B-4.2] | pKi [2]: < 6.00
6.00 to 7.00 | CCS(=O)(=O)c1ccc(CNC(=O)c2cnc3c(c2)CN(c2ncc(C(F)(F)F)cn2)CC3(C)C)cc1 [Hy7B-1, N-(4-(ethylsulfonyl)benzyl)-8,8-dimethyl-6-(5-(trifluoromethyl)pyrimidin-2-yl)-5,6,7,8-tetrahydro-1,6-naphthyridine-3-carboxamide] | –
